Assay results as given in patent US20220073521A1, “PYRIMIDINE AND FIVE-MEMBERED NITROGEN HETEROCYCLE DERIVATIVE, PREPARATION METHOD THEREFOR, AND MEDICAL USES THEREOF” (Tuojie Biotech (Shanghai) Co., Ltd., priority 2018, published 2022).
Residue numbers refer to the chain shown, from its start. Where two headings read alike, the source gives them in different places.

Tests used:
[1] = molecular target: T1, SHP2 E69K (Homo sapiens, UniProt Q06124, E69K); assay: In vitro activity on SHP2 mutant E69K phosphatase; type: biochemical
T1 construct: recombinantly expressed full-length SHP2 (aa 1-593) with E69K and E76K; purchased Novoprotein Scientific Inc
T1 sequence (Q06124 1-593 E69K): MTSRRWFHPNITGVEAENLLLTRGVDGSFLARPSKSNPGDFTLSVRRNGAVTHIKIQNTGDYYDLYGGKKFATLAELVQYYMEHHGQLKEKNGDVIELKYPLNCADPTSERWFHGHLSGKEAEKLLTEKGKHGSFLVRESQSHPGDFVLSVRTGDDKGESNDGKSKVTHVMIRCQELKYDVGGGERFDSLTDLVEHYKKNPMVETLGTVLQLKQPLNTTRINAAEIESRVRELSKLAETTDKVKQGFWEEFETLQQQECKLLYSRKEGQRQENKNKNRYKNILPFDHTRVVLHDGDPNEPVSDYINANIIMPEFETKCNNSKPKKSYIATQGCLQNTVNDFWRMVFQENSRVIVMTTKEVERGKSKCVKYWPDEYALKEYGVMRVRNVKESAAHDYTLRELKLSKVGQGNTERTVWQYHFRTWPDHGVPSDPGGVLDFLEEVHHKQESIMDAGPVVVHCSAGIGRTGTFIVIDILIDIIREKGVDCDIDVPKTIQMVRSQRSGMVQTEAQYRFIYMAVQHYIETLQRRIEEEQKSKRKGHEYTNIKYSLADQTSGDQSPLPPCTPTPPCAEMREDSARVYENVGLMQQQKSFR
Experimental: The reaction solution was shaked (350 rpm) at room temperature for 30 minutes. The reaction substrate DiFMUP with a final concentration of 30 μM was added, and the reaction solution was reacted at room temperature for 30 minutes. The phosphatase reaction was stopped by adding 5 μL of stop solution (60 mM HEPES, pH 7.5, 0.2% SDS).

[2] = molecular target: T2, hERG potassium channel (Homo sapiens, UniProt Q12809); assay: hERG current inhibition experiment (manual patch clamp, CHO hERG cells); type: cell-based; conditions: whole-cell patch clamp, tail current
T2 construct: host or cells: CHO hERG cells
Experimental: In this experiment, whole-cell current recording was performed using a manual patch clamp system (HEKA EPC-10 signal amplification and digital conversion system, purchased from HEKA Electronic, Germany). The round glass slide of which surface CHO hERG cells (provided by Sophion Bioscience Inc., Denmark, the cell generation number was P21) were grown on was placed in an electrophysiological recording slot under an inverted microscope. The recording slot was continuously perfused with extracellular fluid (approximately 1 mL per minute). Conventional whole-cell patch clamp current recording technique was used in the experiment. The experiments were performed at normal room temperature (˜25° C.). The cells were clamped at a voltage of −80 mV. Cell patch clamp voltage was depolarized to +20 mV to activate hERG potassium channel, and to −50 mV after 5 seconds to eliminate inactivation and generate tail currents. The tail current peak was used as a value of hERG current. When the hERG potassium current recorded in the above steps became steady under continuous perfusion of the extracellular fluid in the recording slot, the drug to be tested could be added to the perfusion, until the inhibition effect of the drug on hERG current reached a steady state. Generally, the overlapping of most recent three consecutive current recording lines was used as a criterion to determine whether the state was stable. After reaching the steady state, the recording slot was perfused with extracellular fluid until the hERG current returned to the value before the drug adding. The test data was analyzed by HEKA Patchmaster (V2x73.2), Microsoft Excel and the data analysis software provided by Graphpad Prism 5.0.

[3] = molecular target: T3, SHP2 wild-type phosphatase (recombinantly expressed full-length SHP2, aa 1-593) (Homo sapiens, UniProt Q06124); assay: In vitro activity on SHP2 wild-type phosphatase (DiFMUP fluorescence); conditions: wild-type full-length SHP2, activated polypeptide IRS1 0.5 nM, DiFMUP 30 μM;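 note: enzyme preincubated at room temperature, then DiFMUP reaction run at room temperature and halted with SDS, potency derived from a logistic curve fit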
T3 sequence (Q06124 1-593): T1 sequence (Q06124 1-593 E69K) with K69E
Experimental: 0.2 nM recombinantly expressed full-length SHP2 (aa 1-593), 0.5 nM activated polypeptide IRS1 with double phosphorylation sites (sequence: H2N-LN(pY)IDLDLY(dPEG8)LST(pY)ASINFQK-amide) and a series of concentrations of the test compound (final concentrations were 1 μM, 0.3 μM, 0.1 μM, 0.03 μM, 0.01 μM, 0.003 μM, 0.001 μM, 0.0003 μM, 0.0001 μM, 0.00003 μM) were added to the phosphatase reaction solution (60 mM HEPES, pH 7.5 0.005% Brij-35, 75 mM NaCl, 75 mM KCl, 1 mM EDTA, 5 mM DTT). The reaction solution was shaked (350 rpm) at room temperature for 30 minutes. The reaction substrate DiFMUP with a final concentration of 30 μM was added, and the reaction solution was reacted at room temperature for 30 minutes. The phosphatase reaction was stopped by adding 5 μL of stop solution (60 mM HEPES, pH 7.5, 0.2% SDS). Ex358 nm/Em455 fluorescence value was read on the fluorescence plate reader MD SpectraMax.
The IC50 value of the compound was calculated using the four-parameter logit method. In the following formula, x represents the logarithmic form of the compound concentration, and F(x) represents the effect value (the inhibition rate of cell proliferation under the given concentration condition): F(x)=((A−D)/(1+((x/C)^B)))+D. A, B, C and D are four parameters. Different concentrations correspond to different inhibition rates, based on which an inverse curve was plotted, and the IC50 of the inhibitor was calculated from the curve. The IC50 of the compound was calculated with Primer premier 6.0.

T2 sequence (Q12809 whole entry): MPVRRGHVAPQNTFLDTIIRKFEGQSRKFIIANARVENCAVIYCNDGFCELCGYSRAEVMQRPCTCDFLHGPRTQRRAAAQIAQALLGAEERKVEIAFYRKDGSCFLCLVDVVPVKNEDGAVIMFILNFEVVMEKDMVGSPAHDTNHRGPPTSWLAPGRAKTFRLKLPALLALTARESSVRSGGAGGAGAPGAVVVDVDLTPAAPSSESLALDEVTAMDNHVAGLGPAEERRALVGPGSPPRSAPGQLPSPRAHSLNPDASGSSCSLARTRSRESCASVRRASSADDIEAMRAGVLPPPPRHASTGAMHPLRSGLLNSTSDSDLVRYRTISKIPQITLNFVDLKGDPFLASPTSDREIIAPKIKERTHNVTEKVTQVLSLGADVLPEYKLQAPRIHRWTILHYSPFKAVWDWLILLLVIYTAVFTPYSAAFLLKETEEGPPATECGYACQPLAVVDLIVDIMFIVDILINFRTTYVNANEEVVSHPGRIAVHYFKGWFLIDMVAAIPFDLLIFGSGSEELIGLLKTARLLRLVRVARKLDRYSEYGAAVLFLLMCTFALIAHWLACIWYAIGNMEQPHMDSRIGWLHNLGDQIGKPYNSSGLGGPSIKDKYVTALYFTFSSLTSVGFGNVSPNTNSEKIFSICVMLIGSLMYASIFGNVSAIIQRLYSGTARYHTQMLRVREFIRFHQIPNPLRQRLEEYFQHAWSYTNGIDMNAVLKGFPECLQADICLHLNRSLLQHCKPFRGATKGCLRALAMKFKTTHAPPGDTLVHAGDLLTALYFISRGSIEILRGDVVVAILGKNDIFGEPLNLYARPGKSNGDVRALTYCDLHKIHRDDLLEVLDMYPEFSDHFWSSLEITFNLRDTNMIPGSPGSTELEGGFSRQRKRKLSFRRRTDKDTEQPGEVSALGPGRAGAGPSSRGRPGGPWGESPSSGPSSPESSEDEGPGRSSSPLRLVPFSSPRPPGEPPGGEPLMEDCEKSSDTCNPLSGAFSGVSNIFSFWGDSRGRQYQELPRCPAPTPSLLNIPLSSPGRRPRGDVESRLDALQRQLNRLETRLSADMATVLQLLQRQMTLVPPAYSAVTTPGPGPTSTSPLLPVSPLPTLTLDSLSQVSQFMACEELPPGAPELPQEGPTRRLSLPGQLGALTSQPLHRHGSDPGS

SMILES | IC50 ([1]; SHP2 E69K the activated polypeptide was added IC50, activated polypeptide IRS1 added) | IC50 ([1]; SHP2 E69K the activated polypeptide was not added IC50, activated polypeptide not added) | IC50 [2] | IC50 [3] | IC50 ([1]; activated polypeptide IRS1 added, read-out: SHP2 E69K the activated polypeptide was added IC50) | IC50 ([1]; activated polypeptide not added, read-out: SHP2 E69K the activated polypeptide was not added IC50)
CNc1nccc(Sc2c(C)nc(N3CCC4(CC3)Cc3ncccc3[C@H]4N)n3ccnc23)c1Cl [Example 41, (S)-1′-(8-((3-Chloro-2-(methylamino)pyridin-4-yl)thio)-7-methylimidazo[1,2-c]pyrimidin-5-yl)-5,7-dihydrospiro[cyclopenta[b]pyridine-6,4′-piperidin]-5-amine] | 8.5 nM | 0.91 nM | 10200 nM | 2.1 nM |  | 
CNc1nccc(Sc2cnc(N3CCC4(CC3)Cc3ncccc3[C@H]4N)n3ccnc23)c1Cl [Example 43, (S)-1′-(8-((3-Chloro-2-(methylamino)pyridin-4-yl)thio)imidazo[1,2-c]pyrimidin-5-yl)-5,7-dihydrospiro[cyclopenta[b]pyridine-6,4′-piperidin]-5-amine] |  |  | 10300 nM | 2 nM | 7.1 nM | 0.78 nM
